# Results from the supplement of paper PMC8882468.
# System: HCI-019 (organoid from a triple-negative breast cancer xenograft)
# Assay: CTG-3D luminescence at 96 h relative to day-0 seeding control (ratio to day 0); higher = more growth / less cytotoxicity; PDxO 3D drug screen (set 2), 96 h, CTG-3D normalised to day-0 seeding control.
# Settings: 0.005 µM; days in culture: 215
row,SMILES,CTG-3D luminescence at 96 h
1,COc1cccc2c1C(=O)c1c(O)c3c(c(O)c1C2=O)C[C@@](O)(C(=O)CO)C[C@@H]3O[C@H]1C[C@H](N)[C@@H](O)[C@H](C)O1 [epirubicin],1.32
2,CC(=O)c1c(C)c2cnc(Nc3ccc(N4CCNCC4)cn3)nc2n(C2CCCC2)c1=O [palbociclib],2.06
3,O=C(c1cc(Cc2n[nH]c(=O)c3ccccc23)ccc1F)N1CCN(C(=O)C2CC2)CC1 [olaparib],1.04

# Same assay, conditions: 0.1 µM; days in culture: 173
row,SMILES,CTG-3D luminescence at 96 h
1,COc1cccc2c1C(=O)c1c(O)c3c(c(O)c1C2=O)C[C@@](O)(C(=O)CO)C[C@@H]3O[C@H]1C[C@H](N)[C@@H](O)[C@H](C)O1 [epirubicin],0.682
2,CC(=O)c1c(C)c2cnc(Nc3ccc(N4CCNCC4)cn3)nc2n(C2CCCC2)c1=O [palbociclib],2.55
3,O=C(c1cc(Cc2n[nH]c(=O)c3ccccc23)ccc1F)N1CCN(C(=O)C2CC2)CC1 [olaparib],2.31

# Same assay, conditions: 0.1 µM; days in culture: 194
row,SMILES,CTG-3D luminescence at 96 h
1,COc1cccc2c1C(=O)c1c(O)c3c(c(O)c1C2=O)C[C@@](O)(C(=O)CO)C[C@@H]3O[C@H]1C[C@H](N)[C@@H](O)[C@H](C)O1 [epirubicin],0.514
2,CC(=O)c1c(C)c2cnc(Nc3ccc(N4CCNCC4)cn3)nc2n(C2CCCC2)c1=O [palbociclib],2.76
3,O=C(c1cc(Cc2n[nH]c(=O)c3ccccc23)ccc1F)N1CCN(C(=O)C2CC2)CC1 [olaparib],1.65

# Same assay, conditions: 0.1 µM; days in culture: 215
row,SMILES,CTG-3D luminescence at 96 h
1,COc1cccc2c1C(=O)c1c(O)c3c(c(O)c1C2=O)C[C@@](O)(C(=O)CO)C[C@@H]3O[C@H]1C[C@H](N)[C@@H](O)[C@H](C)O1 [epirubicin],0.384
2,CC(=O)c1c(C)c2cnc(Nc3ccc(N4CCNCC4)cn3)nc2n(C2CCCC2)c1=O [palbociclib],1.48
3,O=C(c1cc(Cc2n[nH]c(=O)c3ccccc23)ccc1F)N1CCN(C(=O)C2CC2)CC1 [olaparib],1.59

# Same assay, conditions: 1 µM; days in culture: 173
row,SMILES,CTG-3D luminescence at 96 h
1,COc1cccc2c1C(=O)c1c(O)c3c(c(O)c1C2=O)C[C@@](O)(C(=O)CO)C[C@@H]3O[C@H]1C[C@H](N)[C@@H](O)[C@H](C)O1 [epirubicin],0.176
2,CC(=O)c1c(C)c2cnc(Nc3ccc(N4CCNCC4)cn3)nc2n(C2CCCC2)c1=O [palbociclib],2.78
3,O=C(c1cc(Cc2n[nH]c(=O)c3ccccc23)ccc1F)N1CCN(C(=O)C2CC2)CC1 [olaparib],0.982

# Same assay, conditions: 1 µM; days in culture: 194
row,SMILES,CTG-3D luminescence at 96 h
1,COc1cccc2c1C(=O)c1c(O)c3c(c(O)c1C2=O)C[C@@](O)(C(=O)CO)C[C@@H]3O[C@H]1C[C@H](N)[C@@H](O)[C@H](C)O1 [epirubicin],0.126
2,CC(=O)c1c(C)c2cnc(Nc3ccc(N4CCNCC4)cn3)nc2n(C2CCCC2)c1=O [palbociclib],2.08
3,O=C(c1cc(Cc2n[nH]c(=O)c3ccccc23)ccc1F)N1CCN(C(=O)C2CC2)CC1 [olaparib],1.48

# Same assay, conditions: 1 µM; days in culture: 215
row,SMILES,CTG-3D luminescence at 96 h
1,COc1cccc2c1C(=O)c1c(O)c3c(c(O)c1C2=O)C[C@@](O)(C(=O)CO)C[C@@H]3O[C@H]1C[C@H](N)[C@@H](O)[C@H](C)O1 [epirubicin],0.205
2,CC(=O)c1c(C)c2cnc(Nc3ccc(N4CCNCC4)cn3)nc2n(C2CCCC2)c1=O [palbociclib],1.83
3,O=C(c1cc(Cc2n[nH]c(=O)c3ccccc23)ccc1F)N1CCN(C(=O)C2CC2)CC1 [olaparib],1.06

# Same assay, conditions: 10 µM; days in culture: 173
row,SMILES,CTG-3D luminescence at 96 h
1,COc1cccc2c1C(=O)c1c(O)c3c(c(O)c1C2=O)C[C@@](O)(C(=O)CO)C[C@@H]3O[C@H]1C[C@H](N)[C@@H](O)[C@H](C)O1 [epirubicin],0.0215
2,CC(=O)c1c(C)c2cnc(Nc3ccc(N4CCNCC4)cn3)nc2n(C2CCCC2)c1=O [palbociclib],1.39
3,O=C(c1cc(Cc2n[nH]c(=O)c3ccccc23)ccc1F)N1CCN(C(=O)C2CC2)CC1 [olaparib],0.711

# Same assay, conditions: 10 µM; days in culture: 194
row,SMILES,CTG-3D luminescence at 96 h
1,COc1cccc2c1C(=O)c1c(O)c3c(c(O)c1C2=O)C[C@@](O)(C(=O)CO)C[C@@H]3O[C@H]1C[C@H](N)[C@@H](O)[C@H](C)O1 [epirubicin],0.00997
2,CC(=O)c1c(C)c2cnc(Nc3ccc(N4CCNCC4)cn3)nc2n(C2CCCC2)c1=O [palbociclib],1.97
3,O=C(c1cc(Cc2n[nH]c(=O)c3ccccc23)ccc1F)N1CCN(C(=O)C2CC2)CC1 [olaparib],0.946

# Same assay, conditions: 10 µM; days in culture: 215
row,SMILES,CTG-3D luminescence at 96 h
1,COc1cccc2c1C(=O)c1c(O)c3c(c(O)c1C2=O)C[C@@](O)(C(=O)CO)C[C@@H]3O[C@H]1C[C@H](N)[C@@H](O)[C@H](C)O1 [epirubicin],0.0145
2,CC(=O)c1c(C)c2cnc(Nc3ccc(N4CCNCC4)cn3)nc2n(C2CCCC2)c1=O [palbociclib],1.35
3,O=C(c1cc(Cc2n[nH]c(=O)c3ccccc23)ccc1F)N1CCN(C(=O)C2CC2)CC1 [olaparib],0.36

# Same assay, conditions: 100 µM; days in culture: 173
row,SMILES,CTG-3D luminescence at 96 h
1,COc1cccc2c1C(=O)c1c(O)c3c(c(O)c1C2=O)C[C@@](O)(C(=O)CO)C[C@@H]3O[C@H]1C[C@H](N)[C@@H](O)[C@H](C)O1 [epirubicin],-0.00415
2,CC(=O)c1c(C)c2cnc(Nc3ccc(N4CCNCC4)cn3)nc2n(C2CCCC2)c1=O [palbociclib],1.9
3,O=C(c1cc(Cc2n[nH]c(=O)c3ccccc23)ccc1F)N1CCN(C(=O)C2CC2)CC1 [olaparib],1.32

# Same assay, conditions: 100 µM; days in culture: 194
row,SMILES,CTG-3D luminescence at 96 h
1,COc1cccc2c1C(=O)c1c(O)c3c(c(O)c1C2=O)C[C@@](O)(C(=O)CO)C[C@@H]3O[C@H]1C[C@H](N)[C@@H](O)[C@H](C)O1 [epirubicin],-0.00363
2,CC(=O)c1c(C)c2cnc(Nc3ccc(N4CCNCC4)cn3)nc2n(C2CCCC2)c1=O [palbociclib],1.02
3,O=C(c1cc(Cc2n[nH]c(=O)c3ccccc23)ccc1F)N1CCN(C(=O)C2CC2)CC1 [olaparib],0.789

# Same assay, conditions: 100 µM; days in culture: 215
row,SMILES,CTG-3D luminescence at 96 h
1,COc1cccc2c1C(=O)c1c(O)c3c(c(O)c1C2=O)C[C@@](O)(C(=O)CO)C[C@@H]3O[C@H]1C[C@H](N)[C@@H](O)[C@H](C)O1 [epirubicin],-0.000778
2,CC(=O)c1c(C)c2cnc(Nc3ccc(N4CCNCC4)cn3)nc2n(C2CCCC2)c1=O [palbociclib],1.38
3,O=C(c1cc(Cc2n[nH]c(=O)c3ccccc23)ccc1F)N1CCN(C(=O)C2CC2)CC1 [olaparib],0.254

# Same assay, conditions: 625 fM; days in culture: 173
row,SMILES,CTG-3D luminescence at 96 h
1,COc1cccc2c1C(=O)c1c(O)c3c(c(O)c1C2=O)C[C@@](O)(C(=O)CO)C[C@@H]3O[C@H]1C[C@H](N)[C@@H](O)[C@H](C)O1 [epirubicin],2.04
2,CC(=O)c1c(C)c2cnc(Nc3ccc(N4CCNCC4)cn3)nc2n(C2CCCC2)c1=O [palbociclib],2.01
3,O=C(c1cc(Cc2n[nH]c(=O)c3ccccc23)ccc1F)N1CCN(C(=O)C2CC2)CC1 [olaparib],1.96

# Same assay, conditions: 625 fM; days in culture: 194
row,SMILES,CTG-3D luminescence at 96 h
1,COc1cccc2c1C(=O)c1c(O)c3c(c(O)c1C2=O)C[C@@](O)(C(=O)CO)C[C@@H]3O[C@H]1C[C@H](N)[C@@H](O)[C@H](C)O1 [epirubicin],2.03
2,CC(=O)c1c(C)c2cnc(Nc3ccc(N4CCNCC4)cn3)nc2n(C2CCCC2)c1=O [palbociclib],1.43
3,O=C(c1cc(Cc2n[nH]c(=O)c3ccccc23)ccc1F)N1CCN(C(=O)C2CC2)CC1 [olaparib],2.41

# Same assay, conditions: 625 fM; days in culture: 215
row,SMILES,CTG-3D luminescence at 96 h
1,COc1cccc2c1C(=O)c1c(O)c3c(c(O)c1C2=O)C[C@@](O)(C(=O)CO)C[C@@H]3O[C@H]1C[C@H](N)[C@@H](O)[C@H](C)O1 [epirubicin],1.97
2,CC(=O)c1c(C)c2cnc(Nc3ccc(N4CCNCC4)cn3)nc2n(C2CCCC2)c1=O [palbociclib],1.73
3,O=C(c1cc(Cc2n[nH]c(=O)c3ccccc23)ccc1F)N1CCN(C(=O)C2CC2)CC1 [olaparib],1.33
